Laboratory results published in patent US20170296568A1, “SIRTUIN GENE POTENTIATOR, AND PHARMACEUTICAL PRODUCT, COSMETIC PRODUCT, AND FOOD PRODUCT USING SAME” (MORISHITA JINTAN CO., LTD., priority 2012, published 2017).

The compounds below were run on hSIRT1 promoter (assay: Enhancing the hSIRT1 promoter: EGFP fluorescence intensity in HaCaT-hSIRT1p-EGFP cells by flow cytometry). Settings: 10 μM in DMSO, 24 hours after addition, FIG. 4.
Assay type: cell-based, human
Method: HaCaT cells (human epidermis keratinocyte-derived cell lines, provided by Dr. Takumi Miura, National Center for Child Health and Development) were cultured using a Dalbecco's Modified Eagle Medium (DMEM) medium (Nissui Pharmaceutical Co., Ltd, Tokyo) supplemented with 10% FBS, 100,000 U/L penicillin (Meiji, Tokyo), 100 mg/L streptomycin (Meiji), and 2.0 g/L NaHCO3. These cells were subcultured at 37° C. in the presence of 5% CO2.
HaCaT cell lines (HaCaT-hSIRT1p-EGFP cells) into which the vector (phSIRT1-EGFP) described in Reference Example 1 was integrated were prepared as below.
The HaCaT cells were disseminated at 9.0×10^5 in a φ60-mm dish, and were cultured in 10% FBS supplemented DMEM medium. Cells as a control were prepared in a similar manner. After 24 hours, 8 μg of phSIRT1p-EGFP was added to and mixed with 300 μL of DMEM medium, 24 μL of Hilymax (manufactured by Dojindo Laboratories), which is a transfection reagent, was further added and mixed therewith, and the mixture was incubated for 15 minutes at room temperature. Subsequently, the total amount was added to the HaCaT cells. After 3 hours, the medium was replaced by 10% FBS supplemented DMEM medium.
At 24 hours after the gene introduction, the medium was replaced by 10% FBS supplemented DMEM medium containing 750 μg/mL of G418 (Wako Pure Chemical Industries, Ltd.). After visually confirming under a microscope that all the control non-treated HaCaT cells were killed, the subculture was continued using 10% FBS supplemented DMEM containing 150 μg/mL of G418.
It was confirmed with flow cytometry that the phSIRT1p-EGFP vector was reliably transferred inro the cells after the subculture. The above-described cells and the control non-treated HaCaT cells were plated at 7.0×10^5 per a φ60-mm dish, respectively. After 24 hours, the cells were picked up and well suspended in 2 mL of 5% FBS supplemented DMEM medium, and were filtered through a Nylon Mesh (Kyoshin Rikoh Inc., Japan), and the EGFP fluorescence intensity thereof was measured with a Flow Cytometer (EPICS, BeckmanCoulter). The analysis was performed using software FlowJo (Tree Star, Ashland Oreg.), so that the EGFP fluorescence intensity of each cell was represented as a histogram.
HaCaT-hSIRT1p-EGFP cells were plated at 1.7×10^6 cells in a φ60-mm dish (as measured by flow cytometry) or at 2.0×10^4 cells/well in a 96-well plate (as measured by an IN Cell Analyzer 1000). After 24 hours, 10 μM of each polyphenol or terpenoid dissolved in DMSO (Wako Pure Chemical Industries, Ltd.) was added thereto. Note that as a negative control, the same amount of DMSO was added without polyphenol or terpenoid, and as a positive control, 10 μM resveratrol was added. At 24 hours after the addition of the various polyphenols or terpenoids or the controls, the fluorescence intensity was measured by flow cytometry.

Compound | EGFP fluorescence intensity (hSIRT1 promoter activity)
O=c1c(O)c(-c2ccc(O)c(O)c2)oc2cc(O)ccc12 [fisetin] | hSIRT1 expression effect on skin epidermis cells was seen
O=c1oc2cc(O)ccc2c2ccc(O)cc12 [urolithin A] | hSIRT1 expression effect on skin epidermis cells was seen
O=C1O[C@H]2[C@@H]3OC(=O)c4cc(O)c(O)c(O)c4-c4c(O)c(O)c5oc(=O)c6c(c(O)c(O)c7oc(=O)c4c5c76)-c4c(cc(O)c(O)c4O)C(=O)OC[C@H]3OC(O)[C@@H]2OC(=O)c2cc(O)c(O)c(O)c2-c2c1cc(O)c(O)c2O (mixture of isomers) [punicalagin] | hSIRT1 expression effect on skin epidermis cells was seen
O=C1OC[C@H]2OC(O)[C@H](O)[C@@H](O)[C@@H]2OC(=O)c2cc(O)c(O)c(O)c2-c2c(O)c(O)c3oc(=O)c4c(c(O)c(O)c5oc(=O)c2c3c54)-c2c1cc(O)c(O)c2O (mixture of isomers) [punicalin] | hSIRT1 expression effect on skin epidermis cells was seen
C[C@@]12C=Cc3occc3[C@H]1CC[C@@]13C[C@@H](CC[C@H]12)[C@@](O)(CO)C3 [kahweol] | hSIRT1 expression effect on skin epidermis cells was seen
